Measurements reported in PubChem BioAssay (NCI).
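Interpolation was linear, between the two tested concentrations surrounding the appropriate level; five concentrations were tested over 48 hours in 96-well plates. GI50: concentration for 50% inhibition of growth. TGI denotes the concentration required for complete inhibition of growth.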

Experiments:
Experiment in all cases: DTP human tumour cell line panel, 48 h
SN12C renal = system: SN12C renal
COLO 205 colon = system: COLO 205 colon
HL-60(TB) leukemia = system: HL-60(TB) leukemia
K-562 leukemia = system: K-562 leukemia
MOLT-4 leukemia = system: MOLT-4 leukemia
M14 melanoma = system: M14 melanoma
OVCAR-3 ovarian = system: OVCAR-3 ovarian
BT-549 breast = system: BT-549 breast
A498 renal = system: A498 renal
UACC-62 melanoma = system: UACC-62 melanoma

| SMILES | GI50 (SN12C renal) [µM] | TGI (SN12C renal) [µM] | GI50 (COLO 205 colon) [µM] | TGI (COLO 205 colon) [µM] | GI50 (HL-60(TB) leukemia) [µM] | TGI (HL-60(TB) leukemia) [µM] | GI50 (K-562 leukemia) [µM] | TGI (K-562 leukemia) [µM] | GI50 (MOLT-4 leukemia) [µM] | TGI (MOLT-4 leukemia) [µM] | GI50 (M14 melanoma) [µM] | TGI (M14 melanoma) [µM] | GI50 (OVCAR-3 ovarian) [µM] | TGI (OVCAR-3 ovarian) [µM] | GI50 (BT-549 breast) [µM] | TGI (BT-549 breast) [µM] | GI50 (A498 renal) [µM] | TGI (A498 renal) [µM] | GI50 (UACC-62 melanoma) [µM] | TGI (UACC-62 melanoma) [µM] |
| --- | --- | --- | --- | --- | --- | --- | --- | --- | --- | --- | --- | --- | --- | --- | --- | --- | --- | --- | --- | --- |
| CCC(C)Nc1ccc(N)cc1 (stereo not given) | 2.95 | 12.9 | 1.72 | 3.19 | 1.48 | 5.05 | 2.36 | 10.4 | 4.29 | 12.4 | 4.72 | 15.5 | 2.28 | 5.54 | 6.26 | 20.9 | 7.9 | 23.4 | 2.91 | 12.5 |
| COc1ccc2c(c1OC)CO[C@@H]2[C@H]1c2c(cc3c(c2OC)OCO3)CCN1S(=O)(=O)c1cn(C)cn1 | 3.9 | > 100 | 1.72 | 11.6 | 1.66 | 4.9 | 0.413 | > 100 | 3.84 | > 100 | 0.513 | > 100 | 1.59 | 4.83 | 2.87 | 84.8 | 0.588 | 9.75 | 0.803 | > 100 |
| COC(=O)[C@H](Cc1cnc[nH]1)NC(=O)[C@@H](NC(=O)Nc1cc(C(F)(F)F)cc(C(F)(F)F)c1)C(C)C | 14.5 | 28 | 15.2 | 29.4 | 20.2 | 39.3 | 19.2 | 40.5 | 12.5 | 32.2 | 16.8 | 34 | 14.7 | 28.3 | 16.9 | 33.3 | 13 | 27.3 | 13.9 | 27.2 |
| O=C(/C=C\c1ccc([N+](=O)[O-])cc1)c1ccccc(=O)c1O | – | > 100 | – | 0.967 | – | 1.63 | – | > 30.9 | – | > 21.8 | – | 6.5 | – | 14.4 | – | 6.17 | – | 9.59 | – | 3.13 |
| CN(C)c1ccc2oc(=O)c3ccccc3c2c1 | – | > 100 | – | > 100 | – | > 100 | – | > 100 | – | > 100 | – | > 100 | – | > 100 | – | > 100 | – | > 100 | – | > 100 |
| Cc1ccccc1NC(=O)c1sc2nc(C)c(C(=O)/C=C/c3ccccc3)cc2c1N | 1.07 | 2.5 | 1.65 | 5.27 | 0.922 | 2.72 | 0.731 | > 50 | 1.57 | > 50 | 1.58 | 6.12 | 1 | 2.12 | 1.33 | 5.28 | 1.23 | 4.27 | 0.9 | 2.04 |
| CCN(CC)CCCNc1cc(OC)cc2nc3cc(Cl)ccc3nc12 | 1.09 | 14.5 | 0.956 | 2.26 | 2.22 | 6.66 | 1.54 | 11.6 | 1.28 | 13.7 | 1.61 | 3.02 | 2.06 | 5.9 | 4.95 | 15.3 | 1.27 | 2.7 | 2.19 | 4.25 |
| COc1ccc(C/C(=C(\C)c2ccc(OCCN3CCCC3)cc2)c2ccc(OCCN3CCCC3)cc2)cc1 | 1.67 | 3.2 | 1.72 | 3.38 | 1.67 | 3.63 | 1.53 | 3.6 | 1.94 | 4.51 | 1.67 | 3.5 | 2 | 3.87 | 1.67 | 3.25 | 2.5 | 8.04 | 1.78 | 3.38 |
| Cc1ccc(S(=O)(=O)SC(C)(C)C)cc1 | – | > 65.2 | – | > 92.5 | – | 40.7 | – | 54.4 | – | 41.5 | – | > 88.8 | – | 39.3 | – | 42.3 | – | > 100 | – | 48.6 |
